The text below walks through data of ChEMBL document CHEMBL1201862, “PubChem BioAssay data set” (2004).

Test systems include A498; A549; HCC 2998; HCT-15; HT-29; IGROV-1; LOX IMVI; MDA-MB-231; MDA-MB-435; Malme-3M; NCI-H23; NCI/ADR-RES; OVCAR-5; RPMI-8226; SF-295; SK-MEL-2; UACC-257; UO-31; NCI-H460.
Assay in all cases: DTP human tumour cell line panel, 48 h

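Following 48 hours of exposure in 96-well plates, responses at five concentrations were used to interpolate endpoints linearly. At the GI50, growth is halved.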 Calls of active or inactive are those of the source. Rule as the data show it: active = GI50 up to about 1.1 µM and inactive = higher.

As for `Cn1ncc2c(Nc3cccc(Cl)c3)nc(Nc3cccc(Cl)c3)nc21`, the GI50 (commonly the concentration at which growth is held to half of that of the control) in the assay with A498 is 5.98 µM (inactive); in the assay on A549 it was 8.11 µM (inactive); with HCC 2998 it was 8.93 µM (inactive); with HCT-15, 4.43 µM; in the assay with HT-29, 3.87 µM (inactive); in the assay on IGROV-1, 12.2 µM (inactive). Also, the GI50 with LOX IMVI was 5.82 µM (inactive); with MDA-MB-231, 16.7 µM (inactive); with MDA-MB-435, 10.9 µM (inactive); in the assay with Malme-3M, 17.6 µM (inactive); with NCI-H23, 16.3 µM (inactive); in the assay on NCI/ADR-RES, 9.71 µM (inactive). The GI50 is 16.1 µM (inactive) in the assay with OVCAR-5; 3.61 µM (inactive) in the assay on RPMI-8226; 5.47 µM (inactive) in the assay on SF-295; 14.9 µM (inactive) in the assay with SK-MEL-2; 8.73 µM (inactive) in the assay with UACC-257; 9.73 µM (inactive) with UO-31.

For `O=P(c1ccccc1)(c1ccccc1)C(NCc1ccccc1)c1ccc(F)cc1` (centres undefined), the GI50 in the assay with A498 was 15.2 µM (inactive); with A549 it was 15 µM (inactive); in the assay with HCC 2998 it was 16.1 µM (inactive); in the assay on HCT-15 it was 13.2 µM; in the assay on HT-29, 13.2 µM (inactive); in the assay with IGROV-1 it was 15.5 µM (inactive). In addition, the GI50 in the assay on LOX IMVI is 14.2 µM (inactive); with MDA-MB-231, 11.1 µM (inactive); with MDA-MB-435 it was 8.41 µM (inactive); in the assay with Malme-3M, 17.9 µM (inactive); with NCI-H23 it was 13.6 µM (inactive); in the assay with NCI-H460, 12.2 µM (inactive). In addition, the GI50 is 14 µM (inactive) with NCI/ADR-RES; 25.9 µM (inactive) in the assay with RPMI-8226; 15.2 µM (inactive) with SF-295; 15 µM (inactive) with SK-MEL-2; 18 µM (inactive) in the assay with UACC-257; 12.8 µM (inactive) with UO-31.

Consider `CCOC(=N)n1c(=O)n(C2=NCCN2)c2ccccc21`, for which the GI50 in the assay with A498 is > 100 µM (inactive); in the assay on A549, > 100 µM (inactive); with HCC 2998, > 100 µM (inactive); in the assay with HCT-15, more than 100 µM; with HT-29, > 100 µM (inactive); with IGROV-1 it was > 100 µM (inactive). For the same molecule, the GI50 with LOX IMVI, with MDA-MB-231, in the assay with MDA-MB-435, with Malme-3M, in the assay with NCI-H23 and with NCI-H460 was > 100 µM (inactive) in each case. For the same molecule, the GI50 in the assay on NCI/ADR-RES, with OVCAR-5, with SF-295, in the assay on UACC-257 and with UO-31 was > 100 µM (inactive) in each case.

As to `Cc1cc(C)c2c(=O)n(CN3CCN(c4ccccc4)CC3)sc2n1`, the GI50 was > 100 µM (inactive) in the assay on A498; 33.8 µM (inactive) with A549; 71.3 µM (inactive) in the assay with HCC 2998; 22.5 µM in the assay with HCT-15; 18.7 µM (inactive) in the assay with HT-29; > 100 µM (inactive) in the assay on IGROV-1. The GI50 in the assay on LOX IMVI was 20.7 µM (inactive); with MDA-MB-231, 20.4 µM (inactive); with MDA-MB-435 it was 37.8 µM (inactive); with Malme-3M, 37.2 µM (inactive); in the assay with NCI-H23, 29.2 µM (inactive); in the assay on NCI-H460 it was 67.9 µM (inactive). Further, the GI50 in the assay on NCI/ADR-RES was 24.2 µM (inactive); in the assay with OVCAR-5, 27.7 µM (inactive); in the assay with SF-295, > 100 µM (inactive); with SK-MEL-2 it was 17.2 µM (inactive); with UACC-257, 46.6 µM (inactive); in the assay with UO-31 it was 21.6 µM (inactive).

On to `C/C(=N\Nc1nc2ccccc2s1)c1ncccn1`, for which the GI50 in the assay with A498 is 3.13 µM (inactive); in the assay on A549, 0.141 µM (active); with HCC 2998, 0.953 µM (active); with HCT-15, 0.0215 µM; in the assay on HT-29, < 0.01 µM (active); in the assay on IGROV-1, 0.0183 µM (active). Also, the GI50 is < 0.0179 µM (active) with MDA-MB-231; 0.363 µM (active) with MDA-MB-435; 0.0505 µM (active) in the assay on Malme-3M; 0.0614 µM (active) with NCI-H23; 0.04 µM (active) in the assay with NCI-H460; 0.0172 µM (active) in the assay with NCI/ADR-RES. The GI50 in the assay on OVCAR-5 was 0.415 µM (active); in the assay with RPMI-8226 it was 0.0775 µM (active); with SF-295, 0.11 µM (active); with SK-MEL-2, 0.92 µM (active); in the assay with UACC-257, < 0.0205 µM (active); in the assay with UO-31 it was 0.022 µM (active).

For `CN1N=C(c2ccncc2)OC1c1ccc(Cl)cc1Cl` (centres undefined), the GI50 was 49.9 µM (inactive) in the assay on A498; > 100 µM (inactive) in the assay with A549; > 100 µM (inactive) in the assay on HCC 2998; more than 100 µM in the assay with HCT-15; 59.2 µM (inactive) with HT-29; > 100 µM (inactive) in the assay on IGROV-1. In addition, the GI50 is > 100 µM (inactive) in the assay on LOX IMVI; 87.9 µM (inactive) in the assay on MDA-MB-231; 63.7 µM (inactive) with MDA-MB-435; > 100 µM (inactive) with NCI-H23; > 100 µM (inactive) with NCI-H460; 71.8 µM (inactive) with NCI/ADR-RES. Moreover, the GI50 was > 100 µM (inactive) with OVCAR-5; 72.8 µM (inactive) in the assay with RPMI-8226; 66.2 µM (inactive) in the assay with SF-295; > 100 µM (inactive) in the assay with SK-MEL-2; > 100 µM (inactive) in the assay with UACC-257; 93.5 µM (inactive) in the assay on UO-31.

Take `COC(=O)[C@]12CC[C@H]3CN(C(=O)OCc4ccccc4)[C@H]([C@H]31)[C@H](c1ccccc1)N2`: the GI50 with A498 was 80 µM (inactive); in the assay on A549, 54.7 µM (inactive); with HCC 2998 it was > 100 µM (inactive); in the assay on HCT-15, 69.3 µM; in the assay on HT-29 it was 74.8 µM (inactive); with IGROV-1, > 100 µM (inactive). Further, the GI50 in the assay on LOX IMVI is > 100 µM (inactive); with MDA-MB-231 it was 59.3 µM (inactive); with MDA-MB-435 it was 52 µM (inactive); with NCI-H23, 77.4 µM (inactive); in the assay on NCI-H460, > 100 µM (inactive); with NCI/ADR-RES, 64.6 µM (inactive). Further, the GI50 is > 100 µM (inactive) in the assay with OVCAR-5; 36.1 µM (inactive) in the assay on RPMI-8226; 58.1 µM (inactive) in the assay with SF-295; 59.7 µM (inactive) in the assay on SK-MEL-2; 39.5 µM (inactive) in the assay on UACC-257; 67.3 µM (inactive) with UO-31.

For the molecule `CC(C)N(C(=O)C12C3(C(=O)OC(C)(C)C)C4C5(C#N)C3C1(C(=O)OC(C)(C)C)C5C42C(=O)OC(C)(C)C)C(C)C` (centres undefined), the GI50 in the assay with A498 was > 100 µM (inactive); with A549, 93.5 µM (inactive); in the assay on HCC 2998, 97.9 µM (inactive); with HCT-15, 89.5 µM; in the assay on HT-29, 34.6 µM (inactive); with IGROV-1, > 100 µM (inactive). For the same molecule, the GI50 in the assay with LOX IMVI is 14.4 µM (inactive); in the assay on MDA-MB-231 it was 23 µM (inactive); in the assay on MDA-MB-435, 27.5 µM (inactive); in the assay on NCI-H23, > 100 µM (inactive); with NCI-H460, 75.7 µM (inactive); in the assay with NCI/ADR-RES it was 76.4 µM (inactive). The GI50 was > 100 µM (inactive) with OVCAR-5; 58.2 µM (inactive) with SF-295; > 100 µM (inactive) in the assay on SK-MEL-2; 28.9 µM (inactive) in the assay with UACC-257; 60.4 µM (inactive) in the assay with UO-31.

As for `O=c1c2ccccc2n2n1Cc1ccccc1C2`, the GI50 in the assay with A498 is > 100 µM (inactive); in the assay with A549 it was > 100 µM (inactive); with HCC 2998 it was > 100 µM (inactive); in the assay on HCT-15, more than 100 µM; in the assay on HT-29, > 100 µM (inactive); in the assay on IGROV-1, > 100 µM (inactive). Further, the GI50 in the assay with LOX IMVI, with MDA-MB-231, in the assay on MDA-MB-435, in the assay with Malme-3M, with NCI-H23 and in the assay with NCI-H460 was > 100 µM (inactive) each time. The GI50 is > 100 µM (inactive) in the assay on NCI/ADR-RES; > 100 µM (inactive) with RPMI-8226; > 100 µM (inactive) in the assay with SF-295; > 100 µM (inactive) with UACC-257; 86.3 µM (inactive) in the assay with UO-31.

For the molecule `CC(=O)C(=CNc1c(C)n(C)n(-c2ccccc2)c1=O)C(C)=O`, the GI50 was > 100 µM (inactive) in the assay on A498; > 100 µM (inactive) in the assay on A549; > 100 µM (inactive) in the assay on HCC 2998; more than 100 µM in the assay with HCT-15; > 100 µM (inactive) in the assay with IGROV-1; > 100 µM (inactive) with LOX IMVI. Moreover, the GI50 in the assay with MDA-MB-231, in the assay with MDA-MB-435, in the assay on Malme-3M, in the assay with NCI-H23, with NCI/ADR-RES and in the assay with OVCAR-5 was > 100 µM (inactive) in each case. For the same molecule, the GI50 with RPMI-8226, in the assay with SF-295, in the assay with SK-MEL-2, in the assay with UACC-257 and with UO-31 was > 100 µM (inactive) in each case.

Take `CC(C)C1=CC2=C(C(=O)C1=O)C13CCCC(C)(C)C1CC2OC3=O` (centres undefined): the GI50 was 27.2 µM (inactive) in the assay on A498; 43.5 µM (inactive) in the assay with A549; 21.3 µM (inactive) in the assay with HCC 2998; 12.8 µM with HCT-15; 12.5 µM (inactive) in the assay with HT-29; 17.3 µM (inactive) with IGROV-1. Also, the GI50 with LOX IMVI was 20.1 µM (inactive); with MDA-MB-231, 21.9 µM (inactive); in the assay on MDA-MB-435 it was 20.8 µM (inactive); with NCI-H23, 26.8 µM (inactive); in the assay on NCI-H460, 26.2 µM (inactive); in the assay on NCI/ADR-RES, 18.9 µM (inactive). For the same molecule, the GI50 with OVCAR-5 is 25.4 µM (inactive); with RPMI-8226, 8.18 µM (inactive); in the assay with SF-295, 37 µM (inactive); in the assay on SK-MEL-2, 21.7 µM (inactive); with UACC-257 it was 23.9 µM (inactive); in the assay with UO-31, 19.4 µM (inactive).
